Test results reported in US20060020110A1, “Synthetic peptides that bind to the hepatitis B virus core and E antigens” (priority 2000, published 2006).

Assays:
[1] = biological target: T1, HBcAg (Hepatitis B virus genotype D subtype ayw, UniProt P03146); conditions: for OD at 490 nm, bound peptide SEQ. ID. No. 74: HBcAg coated 1 μg/ml, 5 μg SEQ. ID. No. 74 + 5 μg HBcAg peptide, no inhibitor OD 1.454; for Std. Deviation from the mean: deviation of the OD from the mean OD of all peptides; for Effect on binding of peptide SEQ. ID. No. 74 to HBcAg (in words): 5 μg HBcAg peptide + 5 μg SEQ. ID. No. 74, triplicate
T1 sequence (P03146 whole entry, the tested form may be a part): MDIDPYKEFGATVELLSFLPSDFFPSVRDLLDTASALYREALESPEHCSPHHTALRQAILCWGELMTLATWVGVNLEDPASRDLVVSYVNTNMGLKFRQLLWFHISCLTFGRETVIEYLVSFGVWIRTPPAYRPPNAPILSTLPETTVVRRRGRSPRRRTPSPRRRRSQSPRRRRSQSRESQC
Procedure: In this experiment, microplates were coated overnight with 1 μg/ml HBcAg and, subsequently, a 100 μl mixture containing 5 μg of the peptide […] […] The HBcAg peptides were approximately 20 amino acids in length and corresponded to regions of HBcAg spanning amino acid residues 11-183. The experiment was performed in triplicate.

[2] = biological target: T1, HBcAg; conditions: for OD at 490 nm, HBcAg binding to support-bound amino terminal deletion peptides: HBcAg added at 5 μg/ml; for OD at 405 nm to indicated antigen: HBcAg 0.2 μg/well / OD at 405 nm to indicated antigen: HBcAg 2 μg/well: support-bound peptide
Excerpt: (§1) One approach to rational drug design involves sequential amino acid deletion of a known binding partner starting from either the amino or carboxy termini. Amino-terminal deletions of the binding partners of SEQ. ID. Nos. 5 and 17 were made and these peptide fragments were joined to a support and analyzed for the ability to bind HBcAg. […] ID. […] The amino-terminal deletions of the peptide of SEQ. ID. […] The amino-terminal deletion products of the peptide of SEQ. ID. […] ID.
To determine whether a candidate binding partner bound to HBcAg and/or HbeAg, a multimeric support-based binding assay was performed. Accordingly, synthetic peptides corresponding to the VH and VL domains of the sequenced mAbs were passively adsorbed to 96 well microplates in serial dilutions starting at 200 μg/ml. The peptide coated plates were then incubated with HBcAg and HBeAg serially diluted in PBS-GT. The amount of HBcAg and HBeAg bound by the peptides was then detected using a mAb directed to an epitope common to HBcAg and HBeAg (See Sällberg et al., J General Virology 74:1335-1340 (1993), herein expressly incorportaed by reference in its entirety) diluted 1:3000 in PBS-GT. The quantity of bound mAb was determined by addition by peroxidase labeled rabbit anti-mouse IgG (P260, Dako A S, Denmark). The plates were developed by incubation with ortho-phenylene-diamine (Sigma) and the absorbance at 492 nm was evaluated.
The converse of an aspect of this experiment was also performed. That is, various dilutions of support-bound binding partners (SEQ. ID. Nos. 5, 16, 17, 28, and 29) were contacted with 10 μg/ml of HBcAg and binding was evaluated. ID.

[3] = biological target: T1, HBcAg; conditions: peptide added prior to addition of mAb; uninhibited control mean OD 0.871
Excerpt: as §1
Variations of the characterization assays described above include competitive binding assays. […] Initial experiments were conducted by contacting binding partner to HBcAg prior to introducing the antibody. […] ID. […] ID. […] ID. […] ID. […] ID. […] ID.

| Substance | OD at 490 nm, bound peptide SEQ. ID. No. 74 [1] | Std. Deviation from the mean [1] | OD at 490 nm, HBcAg binding to support-bound amino terminal deletion peptides [2] | OD at 490 nm, mAb 4-2 binding to HBcAg [3] | also measured |
| --- | --- | --- | --- | --- | --- |
| ALESPEHCSPHHTALRQAIL [SEQ. ID. No. 99] | 1.372 | 0.665 | – | – | – |
| ASGYIFTS [SEQ. ID. No. 50] | – | – | 0.407 | 0.920 | – |
| ASQSVSTSSYSYMHWY [SEQ. ID. No. 56] | – | – | 0.324 | – | – |
| ASVKLSCKASGYIFTS [SEQ. ID. No. 42] | – | – | 3.219 | 0.207 | – |
| ATVELLSFLPSDFFPSVRDL [SEQ. ID. No. 96] | 1.387 | 0.696 | – | – | – |
| AYRPPNAPILSTLPETTVVR [SEQ. ID. No. 108] | 1.564 | 1.052 | – | – | – |
| CKASGYIFTS [SEQ. ID. No. 48] | – | – | 0.255 | 0.851 | – |
| CKASGYIFTSYDIDWVRQTP (Synthetically prepared amino acid sequence) [Peptide 3] | – | – | – | – | OD at 405 nm to indicated antigen: HBcAg 0.2 μg/well [2]: 0.187; OD at 405 nm to indicated antigen: HBcAg 2 μg/well [2]: 0.525 |
| CRASQSVSTSSYSYMHWY [SEQ. ID. No. 54] | – | – | 1.415 | – | – |
| CWGELMTLATWVGVNLEDPA [SEQ. ID. No. 101] | 1.395 | 0.712 | – | – | – |
| ELTRLTSEDSAVYFCARGDY (Synthetically prepared amino acid sequence) [Peptide 9] | – | – | – | – | OD at 405 nm to indicated antigen: HBcAg 0.2 μg/well [2]: 0.195; OD at 405 nm to indicated antigen: HBcAg 2 μg/well [2]: 0.574 |
| GASVKLSCKASGYIFTS [SEQ. ID. No. 41] | – | – | 2.863 | 0.205 | – |
| GRETVIEYLVSFGVWIRTPP [SEQ. ID. No. 106] | 0.832 | −0.423 | – | – | – |
| GYIFTS [SEQ. ID. No. 52] | – | – | 0.414 | 0.903 | – |
| KASGYIFTS [SEQ. ID. No. 49] | – | – | 0.237 | 0.866 | – |
| KLSCKASGYIFTS [SEQ. ID. No. 45] | – | – | 3.694 | 0.808 | – |
| KPGASVKLSCKASGYIFTS [SEQ. ID. No. 39] | – | – | 1.337 | 0.202 | – |
| LDTASALYREALESPEHCSP [SEQ. ID. No. 98] | 1.589 | 1.103 | – | – | – |
| LSCKASGYIFTS [SEQ. ID. No. 46] | – | – | 0.565 | 0.777 | – |
| LVTVSAAKTTPPSVYPLVPV (Synthetically prepared amino acid sequence) [Peptide 35] | – | – | – | – | OD at 405 nm to indicated antigen: HBcAg 0.2 μg/well [2]: 0.198; OD at 405 nm to indicated antigen: HBcAg 2 μg/well [2]: 0.59 |
| LWFHISCLTFGRETVIEYLV [SEQ. ID. No. 105] | 1.129 | .175 | – | – | – |
| PGASVKLSCKASGYIFTS [SEQ. ID. No. 40] | – | – | 1.722 | 0.182 | – |
| PSPRRRRSQSPRRRRSQSRESQC [SEQ. ID. No. 111] | 0.678 | −0.734 | – | – | – |

| Substance | OD at 490 nm, bound peptide SEQ. ID. No. 74 [1] | Std. Deviation from the mean [1] | OD at 490 nm, HBcAg binding to support-bound amino terminal deletion peptides [2] | OD at 490 nm, mAb 4-2 binding to HBcAg [3] | also measured |
| --- | --- | --- | --- | --- | --- |
| QLNSLTSEDSAVYYCARGKG (Synthetically prepared amino acid sequence) [Peptide 32] | – | – | – | – | OD at 405 nm to indicated antigen: HBcAg 0.2 μg/well [2]: 0.121; OD at 405 nm to indicated antigen: HBcAg 2 μg/well [2]: 0.528 |
| QSVSTSSYSYMHWY [SEQ. ID. No. 58] | – | – | 0.282 | – | – |
| RASQSVSTSSYSYMHWY [SEQ. ID. No. 55] | – | – | 0.429 | – | – |
| RRGRSPRRRTPSPRRRRSQS [SEQ. ID. No. 110] | 0.732 | −0.625 | – | – | – |
| SCKASGYIFTS [SEQ. ID. No. 47] | – | – | 0.297 | 0.784 | – |
| SCRASQSVSTSSYSYMHWY [SEQ. ID. No. 53] | – | – | 1.452 | – | – |
| SDFFPSVRDLLDTASALYRE [SEQ. ID. No. 97] | 1.576 | 1.077 | – | – | – |
| SGYIFTS [SEQ. ID. No. 51] | – | – | 0.389 | 0.887 | – |
| SQSVSTSSYSYMHWY [SEQ. ID. No. 57] | – | – | 0.310 | – | – |
| SRDLVVSYVNTNMGLKFRQL [SEQ. ID. No. 103] | 0.386 | −1.323 | – | – | Effect on binding of peptide SEQ. ID. No. 74 to HBcAg (in words) [1]: consistently reduced the binding |
| SSYSYMHWY [SEQ. ID. No. 63] | – | – | 0.311 | – | – |
| STLPETTVVRRRGRSPRRRT [SEQ. ID. No. 109] | 0.811 | −0.466 | – | – | – |
| STSSYSYMHWY [SEQ. ID. No. 61] | – | – | 0.372 | – | – |
| SVKLSCKASGYIFTS [SEQ. ID. No. 43] | – | – | 3.364 | 0.175 | – |
| SVSTSSYSYMHWY [SEQ. ID. No. 59] | – | – | 0.305 | – | – |
| SYMHWY [SEQ. ID. No. 65] | – | – | 0.218 | – | – |
| TNMGLKFRQLLWFHISCLTF [SEQ. ID. No. 104] | 0.058 | −1.984 | – | – | Effect on binding of peptide SEQ. ID. No. 74 to HBcAg (in words) [1]: consistently reduced the binding |
| TSSYSYMHWY [SEQ. ID. No. 62] | – | – | 0.317 | – | – |
| VKLSCKASGYIFTS [SEQ. ID. No. 44] | – | – | 3.703 | 0.152 | – |
| VSTSSYSYMHWY [SEQ. ID. No. 60] | – | – | 0.369 | – | – |
| WVGVNLEDPASRDLVVSYVN [SEQ. ID. No. 102] | 1.411 | 0.744 | – | – | – |
| YDIDWVRQTPEQGLEWIGWI (Synthetically prepared amino acid sequence) [Peptide 4] | – | – | – | – | OD at 405 nm to indicated antigen: HBcAg 0.2 μg/well [2]: 0.202; OD at 405 nm to indicated antigen: HBcAg 2 μg/well [2]: 0.551 |
| YSYMHWY [SEQ. ID. No. 64] | – | – | 0.245 | – | – |
